Read-outs that look alike come from different tables or passages of the source.

The target of one data set is Human-derived DNA-PK (Homo sapiens, UniProt P78527). Briefly: DNA-dependent protein kinase (DNA-PK) inhibitory activity screening experiment (Eurofins, HTRF). The data set is classed as biochemical. As to conditions: 50 nM GST-cMyc-p53, 30 minutes at room temperature. Here is the method: Experimental Method (Eurofins Pharma Discovery Service) DNA-PK (h) was incubated in assay buffer containing 50 nM GST-cMyc-p53 and Mg/ATP (according to the required concentration). The reaction was initiated by adding Mg/ATP mixture. After 30 minutes of incubation at room temperature, the reaction was stopped by the addition of stop solution containing EDTA. Finally, detection buffer (containing labeled anti-GST monoclonal antibody and europium-labeled anti-Ser15 antibody against phosphorylated p53) was added.

Data set [1] can be described thus: Pharmacokinetic evaluation in mice, plasma, IV and PO. As to conditions: Balb/c male mice; for Tlast / AUC(0-t) / C0 / clearance / half-life / Vd / Cmax / Tmax / AUC0-last / T1/2: plasma; for F: PO (2 mg/kg) vs IV (0.4 mg/kg); for Vd: read-out: Vdss. The data set is classed as in vivo. Here is the method:
The test compound was mixed with 10% dimethyl sulfoxide/50% polyethylene glycol 200/40% water, vortexed and sonicated to prepare a nearly clear solution of 0.08 mg/mL, which was filtered with a microporous membrane for use. Balb/c male mice of 18 to 20 grams were selected, and the candidate compound solution was administered intravenously at a dose of 0.4 mg/kg. The test compound was mixed with 10% dimethyl sulfoxide/50% polyethylene glycol 200/40% water, vortexed and sonicated to prepare a nearly clear solution of 0.2 mg/mL, which was filtered with a microporous membrane for use. Balb/c male mice of 18 to 20 grams were selected, and the candidate compound solution was orally administered at a dose of 2 mg/kg. Whole blood was collected for a certain period of time, and plasma was prepared, then drug concentration was analyzed by LC-MS/MS method, and pharmacokinetic parameters were calculated by Phoenix WinNonlin software (Pharsight, USA).
IV: intravenous administration; PO: oral administration; C0: instantaneous required concentration after intravenous injection; Cmax: maximum blood drug concentration after administration; Tmax: time required to reach the peak drug concentration after administration; T1/2: time required for the blood drug concentration to decrease by half; Vdss: apparent volume of distribution, refers to the proportional constant of the drug dose in vivo and the blood drug concentration when the drug reaches a dynamic equilibrium in vivo. Cl: clearance rate, refers to the apparent volume of distribution of the drug cleared in vivo per unit time; Tlast: time at the last detection point; AUC0-last: area under the drug-time curve, refers to the area surrounded by the blood drug concentration curve to the time axis; F: a measure of the speed and degree of drug absorption into the blood circulation, which is an important index for evaluating the degree of drug absorption.

Setting [2] is: ATP: 10 μM, read-out: DNA-PK kinase inhibitory activity IC50.
Where [3] appears, read: mouse, PO (2 mg/kg), read-out: Tmax.

Turning to `Cc1cc2ncnn2cc1Nc1ncc2c(n1)C1(CCOCC1)C(=O)N2C` [Compound 1], half-maximal inhibition at Human-derived DNA-PK (DNA-PK kinase inhibitory activity IC50, ATP: 10 μM) (IC50) required 39 nM.

For `COC1CCC2(CC1)C(=O)N(C)c1cnc(Nc3cn4ncnc4cc3C)nc12` (single isomer, unassigned) [Compound 3], on Human-derived DNA-PK (setting [2]), the IC50 is 10 nM.

Consider `Cc1cc2ncnn2cc1Nc1ncc2c(n1)C1(CCCCC1)C(=O)N2C` [Compound 2], for which the IC50 at Human-derived DNA-PK (setting [2]) stood at 6 nM.

`CC(=O)N1CCC2(CC1)C(=O)N(C)c1cnc(Nc3cn4ncnc4cc3C)nc12` [Compound 6]: the IC50 on Human-derived DNA-PK (setting [2]) worked out at 6 nM.

`COC1(C)CCC2(CC1)C(=O)N(C)c1cnc(Nc3cn4ncnc4cc3C)nc12` (single isomer, unassigned) [Compound 27]: the IC50 on Human-derived DNA-PK (setting [2]) is 10 nM.

In the case of `Cc1cc2ncnn2cc1Nc1ncc2c(n1)C1(CCC(F)(F)CC1)C(=O)N2C` [Compound 9], the IC50 on Human-derived DNA-PK (setting [2]) turned out to be 3 nM. Also, in data set [1] (IV (0.4 mg/kg)), the Tlast came out at 2 h. In addition, the F in data set [1] is given as 74.5%. Also, the Tlast in data set [1] (PO (2 mg/kg)) was determined as 4 h. In addition, in data set [1] (mouse, IV (0.4 mg/kg)), the AUC(0-t) is 0.311 µM·h, the C0 is 871 nM, the clearance was determined as 53.4 mL/min/kg and the half-life is 14.5 min. In addition, in data set [1] (mouse, IV (0.4 mg/kg)), the Vd was 1.07 L/kg. In data set [1] (mouse, PO (2 mg/kg)), this compound had an AUC(0-t) of 1.16 µM·h, a Cmax of 1080 nM and a half-life of 28.7 min. Further, the Tmax in data set [1] (setting [3]) came to 30 min.

Turning to `Cc1cc2ncnn2cc1Nc1ncc2c(n1)C1(CCSCC1)C(=O)N2C` [Compound 23], at Human-derived DNA-PK (setting [2]), the IC50 turned out to be 8 nM.

As for `Cc1cc2ncnn2cc1Nc1ncc2c(n1)C1(CCCC1)C(=O)N2C` [Compound 17], the IC50 at Human-derived DNA-PK (setting [2]) came out at 7 nM.

For the compound `Cc1cc2ncnn2cc1Nc1ncc2c(n1)C1(CCC(C)(C)CC1)C(=O)N2C` [Compound 12], the IC50 at Human-derived DNA-PK (setting [2]) is 1 nM. In data set [1] (IV (0.4 mg/kg)), this compound showed an AUC0-last of 0.358 µM·h, a T1/2 of 12.2 min and a Tlast of 1 h. Also, the F in data set [1] is on record as 114%. In data set [1] (PO (2 mg/kg)), the AUC0-last stood at 2.036 µM·h, the Cmax worked out at 1860 nM, the T1/2 worked out at 29.5 min and the Tlast is 4 h. In data set [1] (PO (2 mg/kg)), the Tmax stood at 30 min. In addition, in data set [1] (mouse, IV (0.4 mg/kg)), the C0 is 1280 nM, the clearance was 45.8 mL/min/kg and the Vd worked out at 0.794 L/kg.

In the case of `Cc1cc2ncnn2cc1Nc1ncc2c(n1)C1(CCC(C(F)(F)F)CC1)C(=O)N2C` (single isomer, unassigned) [Compound 18], the IC50 on Human-derived DNA-PK (setting [2]) was 4 nM.

For the compound `Cc1cc2ncnn2cc1Nc1ncc2c(n1)C1(CCC(=O)CC1)C(=O)N2C` [Compound 20], the IC50 on Human-derived DNA-PK (setting [2]) was 15 nM.

As for `CON=C1CCC2(CC1)C(=O)N(C)c1cnc(Nc3cn4ncnc4cc3C)nc12` (stereo not shown) [Compound 14], on Human-derived DNA-PK (setting [2]), the IC50 was determined as 11 nM.

As for `Cc1cc2ncnn2cc1Nc1ncc2c(n1)C1(CCN(C)CC1)C(=O)N2C` [Compound 7], on Human-derived DNA-PK (setting [2]), the IC50 came out at 25 nM.

Take `COC1CCC2(CC1)C(=O)N(C)c1cnc(Nc3cn4ncnc4cc3C)nc12` (single isomer, unassigned) [Compound 4]: on Human-derived DNA-PK (setting [2]), the half-maximal inhibitory concentration (IC50) is 4 nM.

As to `COC1(C)CCC2(CC1)C(=O)N(C)c1cnc(Nc3cn4ncnc4cc3C)nc12` (single isomer, unassigned) [Compound 28], the IC50 on Human-derived DNA-PK (setting [2]) is 3 nM.

On to `Cc1cc2ncnn2cc1Nc1ncc2c(n1)C1(CCC(O)CC1)C(=O)N2C` (single isomer, unassigned) [Compound 22], for which the IC50 on Human-derived DNA-PK (setting [2]) was 11 nM.

Take `Cc1cc2ncnn2cc1Nc1ncc2c(n1)C1(CCC(C(F)(F)F)CC1)C(=O)N2C` (single isomer, unassigned) [Compound 19]: the IC50 on Human-derived DNA-PK (setting [2]) was determined as 7 nM.

As to `Cc1cc2ncnn2cc1Nc1ncc2c(n1)C1(CCC3(CCC3)CC1)C(=O)N2C` [Compound 11], the IC50 at Human-derived DNA-PK (setting [2]) amounted to 1 nM. Moreover, the Tlast in data set [1] (IV (0.4 mg/kg)) turned out to be 2 h. In data set [1], the F is 73.7%. Further, the Tlast in data set [1] (PO (2 mg/kg)) is 4 h. In data set [1] (mouse, IV (0.4 mg/kg)), this compound showed an AUC(0-t) of 0.349 µM·h, a C0 of 1250 nM, a clearance of 47.2 mL/min/kg and a half-life of 14.5 min. Also, in data set [1] (mouse, IV (0.4 mg/kg)), the Vd was determined as 0.855 L/kg. For the same compound, in data set [1] (mouse, PO (2 mg/kg)), the AUC(0-t) worked out at 1.29 µM·h, the concentration peaked (Cmax) at 1220 nM and the half-life was 29.6 min. The Tmax in data set [1] (setting [3]) was 30 min.

Consider `Cc1cc2ncnn2cc1Nc1ncc2c(n1)C1(CCC3(CC1)COC3)C(=O)N2C` [Compound 13], for which the IC50 at Human-derived DNA-PK (setting [2]) is 6 nM.

On to `Cc1cc2ncnn2cc1Nc1ncc2c(n1)C1(CCC3(CC3)CC1)C(=O)N2C` [Compound 15], for which the IC50 on Human-derived DNA-PK (setting [2]) is 4 nM. In data set [1] (IV (0.4 mg/kg)), the AUC0-last amounted to 0.454 µM·h, the T1/2 was determined as 15.2 min and the Tlast is reported as 2 h. This compound also registered a F in data set [1] of 83%. In data set [1] (PO (2 mg/kg)), the AUC0-last turned out to be 1.882 µM·h, the T1/2 was determined as 59.8 min, the Tlast came to 8 h and the Tmax was 15 min. In data set [1] (mouse, IV (0.4 mg/kg)), the C0 amounted to 1230 nM, the clearance is 37.6 mL/min/kg and the Vd stood at 0.853 L/kg. Also, the Cmax in data set [1] (mouse, PO (2 mg/kg)) came to 1640 nM.

As to `Cc1cc2ncnn2cc1Nc1ncc2c(n1)C1(CC=C(F)CC1)C(=O)N2C` (stereo not shown) [Compound 10], the IC50 at Human-derived DNA-PK (setting [2]) worked out at 7 nM.

Take `Cc1cc2ncnn2cc1Nc1ncc2c(n1)C1(CCCOCC1)C(=O)N2C` (stereo not shown) [Compound 5]: the IC50 at Human-derived DNA-PK (setting [2]) turned out to be 16 nM.

With `Cc1cc2ncnn2cc1Nc1ncc2c(n1)C1(CCS(=O)(=O)CC1)C(=O)N2C` [Compound 24], the IC50 at Human-derived DNA-PK (setting [2]) is 84 nM.

Turning to `Cc1cc2ncnn2cc1Nc1ncc2c(n1)C1(CCN(CC(F)(F)F)CC1)C(=O)N2C` [Compound 8], the IC50 on Human-derived DNA-PK (setting [2]) worked out at 4 nM.

For `Cc1cc2ncnn2cc1Nc1ncc2c(n1)C1(CC1)C(=O)N2C` [Compound 16], on Human-derived DNA-PK (setting [2]), the IC50 was 39 nM.

Values taken from US20230055321A1, “PYRIMIDOPYRROLE SPIRO COMPOUNDS AND DERIVATIVES THEREOF AS DNA-PK INHIBITORS” (MEDSHINE DISCOVERY INC., priority 2019, published 2023).
